pEC50: −log10 of the molar value.
Molecular target: T1, muscarinic M1 receptor (Homo sapiens, UniProt P11229)
T1 construct: expressed in transfected cells; host or cells: CHO (M1-CHO cells)
T1 sequence (P11229 1-460): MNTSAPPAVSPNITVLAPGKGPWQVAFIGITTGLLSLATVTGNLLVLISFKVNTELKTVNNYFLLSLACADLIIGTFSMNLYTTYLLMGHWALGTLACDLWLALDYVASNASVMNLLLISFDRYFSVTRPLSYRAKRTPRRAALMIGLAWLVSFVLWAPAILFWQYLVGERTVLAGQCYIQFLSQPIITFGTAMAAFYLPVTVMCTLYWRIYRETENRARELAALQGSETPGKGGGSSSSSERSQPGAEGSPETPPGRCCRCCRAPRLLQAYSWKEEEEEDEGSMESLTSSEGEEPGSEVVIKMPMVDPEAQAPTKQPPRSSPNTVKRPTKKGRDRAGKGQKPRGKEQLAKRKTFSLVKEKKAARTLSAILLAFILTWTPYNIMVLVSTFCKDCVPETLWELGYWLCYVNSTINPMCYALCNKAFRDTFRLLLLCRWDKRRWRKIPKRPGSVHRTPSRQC
Test: M1 PAM Assay (IP-One HTRF, IP1 in M1-CHO cells with EC20 of acetylcholine)
Assay type: cell-based
Conditions: 1 hour at room temperature, IP1 readout
Experimental: M1-CHO cells are plated in culture medium (HAM's F12, P/S, 10% FCS) on the day before the experiment with 10 000 cells/well in a 384 well plate (3750 Corning White 384 w plate with lid). On the day of experiment, cells are washed with PBS and IPone buffer is added (glucose 5.5 mM, NaCl 146 mM, MgCl2 0.5 mM, HEPES 10 mM, LiCl 50 mM, CaCl2 1 mM, KCl 4.2 mM). Then diluted compounds (1% DMSO final concentration) are added together with EC20 of acetylcholine and incubated with the cells for 1 hour at room temperature. The intracellular concentration of IP1 is then measured using the IP-One HTRF assay from Cisbio.

Row | Compound | pEC50
1 | Cc1nc2c3c(nn2c(C)c1C)CN(C(=O)c1ccccc1-n1cccn1)C3 [Example 39, (2-pyrazol-1-yl-phenyl)-(5,6,7-trimethyl-1H,3H-2,4,7a,8-tetraaza-cyclopenta[a]inden-2-yl)-methanone] | 5.70 to 6.00
2 | COC(=O)c1ccccc1C(=O)N1Cc2nn3c(C)c(C)c(C)nc3c2C1 [Example 44, 2-(5,6,7-trimethyl-1H,3H-2,4,7a,8-tetraaza-cyclopenta[a]indene-2-carbonyl)-benzoic acid methyl ester] | 5.70 to 6.00
3 | Cc1cn2nc3c(c2nc1C)CN(C(=O)c1ccccc1OCCN(C)C)C3 [Example 32, [2-(2-dimethylamino-ethoxy)-phenyl]-(5,6-dimethyl-1H,3H-2,4,7a,8-tetraaza-cyclopenta[a]inden-2-yl)-methanone] | 5.70 to 6.00
4 | CCOc1cc(F)ccc1C(=O)N1Cc2nn3c(C)c(Cl)c(C)nc3c2C1 [Example 5, (6-chloro-5,7-dimethyl-1H,3H-2,4,7a,8-tetraaza-cyclopenta[a]inden-2-yl)-(2-ethoxy-4-fluoro-phenyl)-methanone] | 6.00 to 6.70
5 | Cc1cnc2c3c(nn2c1)CN(C(=O)c1ccccc1OCCN(C)C)C3 [Example 47, [2-(2-dimethylamino-ethoxy)-phenyl]-(6-methyl-1H,3H-2,4,7a,8-tetraaza-cyclopenta[a]inden-2-yl)-methanone] | 5.70 to 6.00
6 | Cc1nc2c3c(nn2c(C)c1Cl)CN(C(=O)c1ccccc1OC1CCN(C)CC1)C3 [Example 1, (6-chloro-5,7-dimethyl-1H,3H-2,4,7a,8-tetraaza-cyclopenta[a]inden-2-yl)-[2-(1-methyl-piperidin-4-yloxy)-phenyl]-methanone] | > 6.70
7 | Cc1nc2c3c(nn2c(C)c1Cl)CN(C(=O)c1ccccc1N1CCCN(C)CC1)C3 [Example 6, (6-chloro-5,7-dimethyl-1H,3H-2,4,7a,8-tetraaza-cyclopenta[a]inden-2-yl)-[2-(4-methyl-[1,4]diazepan-1-yl)-phenyl]-methanone] | 6.00 to 6.70
8 | CCOc1ccccc1C(=O)N1Cc2nn3c(C)c(CC)c(C)nc3c2C1 [Example 27, (2-ethoxy-phenyl)-(6-ethyl-5,7-dimethyl-1H,3H-2,4,7a,8-tetraaza-cyclopenta[a]inden-2-yl)-methanone] | 5.70 to 6.00
9 | CCOc1ccccc1C(=O)N1Cc2nn3cc(C)c(C)nc3c2C1 [Example 31, (5,6-Dimethyl-1H,3H-2,4,7a,8-tetraaza-cyclopenta[a]inden-2-yl)-(2-ethoxy-phenyl)-methanone] | 5.70 to 6.00
10 | CCNc1ccccc1C(=O)N1Cc2nn3c(C)c(C)c(C)nc3c2C1 [Example 37, (2-ethylamino-phenyl)-(5,6,7-trimethyl-1H,3H-2,4,7a,8-tetraaza-cyclopenta[a]inden-2-yl)-methanone] | 5.70 to 6.00
11 | Cc1nc2c3c(nn2c(C)c1C)CN(C(=O)c1ccccc1N1CCCN(C)CC1)C3 [Example 19, [2-(4-methyl-[1,4]diazepan-1-yl)-phenyl]-(5,6,7-trimethyl-1H,3H-2,4,7a,8-tetraaza-cyclopenta[a]inden-2-yl)-methanone] | 6.00 to 6.70
12 | Cc1nc2c3c(nn2c(C)c1Cl)CN(C(=O)c1ccccc1OC(F)(F)C(F)F)C3 [Example 2, (6-chloro-5,7-dimethyl-1H,3H-2,4,7a,8-tetraaza-cyclopenta[a]inden-2-yl)-[2-(1,1,2,2-tetrafluoro-ethoxy)-phenyl]-methanone] | > 6.70
13 | CC(=O)Oc1ccccc1C(=O)N1Cc2nn3c(C)c(C)c(C)nc3c2C1 [Example 23, acetic acid 2-(5,6,7-trimethyl-1H,3H-2,4,7a,8-tetraaza-cyclopenta[a]indene-2-carbonyl)-phenyl ester] | 6.00 to 6.70
14 | Cc1nc2c3c(nn2c(C)c1C)CN(C(=O)c1ccccc1OCCC1CCCCC1)C3 [Example 40, [2-(2-cyclohexyl-ethoxy)-phenyl]-(5,6,7-trimethyl-1H,3H-2,4,7a,8-tetraaza-cyclopenta[a]inden-2-yl)-methanone] | 5.70 to 6.00
15 | CCCCOc1ccccc1C(=O)N1Cc2nn3c(C)c(C)c(C)nc3c2C1 [Example 21, (2-butoxy-phenyl)-(5,6,7-trimethyl-1H,3H-2,4,7a,8-tetraaza-cyclopenta[a]inden-2-yl)-methanone] | 6.00 to 6.70
16 | Cc1nc2c3c(nn2c(C)c1Cl)CN(C(=O)c1ccccc1N1CCCC1)C3 [Example 7, (6-chloro-5,7-dimethyl-1H,3H-2,4,7a,8-tetraaza-cyclopenta[a]inden-2-yl)-(2-pyrrolidin-1-yl-phenyl)-methanone] | 6.00 to 6.70
17 | CCOc1ccccc1C(=O)N1Cc2nn3cc(Cl)cnc3c2C1 [Example 46, (6-chloro-1H,3H-2,4,7a,8-tetraaza-cyclopenta[a]inden-2-yl)-(2-ethoxy-phenyl)-methanone] | 5.70 to 6.00
18 | CCOc1ccc(F)cc1C(=O)N1Cc2nn3c(C)c(C)c(C)nc3c2C1 [Example 13, (2-ethoxy-5-fluoro-phenyl)-(5,6,7-trimethyl-1H,3H-2,4,7a,8-tetraaza-cyclopenta[a]inden-2-yl)-methanone] | 6.00 to 6.70
19 | Cc1nc2c3c(nn2c(C)c1C)CN(C(=O)c1ccccc1OC(C)C)C3 [Example 26, (2-isopropoxy-phenyl)-(5,6,7-trimethyl-1H,3H-2,4,7a,8-tetraaza-cyclopenta[a]inden-2-yl)-methanone] | 6.00 to 6.70

Now from value to molecule:

Row | pEC50 | Compound
20 | 5.70 to 6.00 | Cc1nc2c3c(nn2c(C)c1C)CN(C(=O)c1ccccc1N1CCN(C)CC1)C3 [Example 36, [2-(4-methyl-piperazin-1-yl)-phenyl]-(5,6,7-trimethyl-1H,3H-2,4,7a,8-tetraaza-cyclopenta[a]inden-2-yl)-methanone]
21 | 6.00 to 6.70 | CCOc1ccccc1C(=O)N1Cc2nn3c(C)c(C)c(C)nc3c2C1 [Example 12, (2-ethoxy-phenyl)-(5,6,7-trimethyl-1H,3H-2,4,7a,8-tetraaza-cyclopenta[a]inden-2-yl)-methanone]
22 | 6.00 to 6.70 | Cc1nc2c3c(nn2c(C)c1Cl)CN(C(=O)c1ccccc1OC(C)C)C3 [Example 9, (6-chloro-5,7-dimethyl-1H,3H-2,4,7a,8-tetraaza-cyclopenta[a]inden-2-yl)-(2-isopropoxy-phenyl)-methanone]
23 | 5.70 to 6.00 | Cc1nc2c3c(nn2c(C)c1Cl)CN(C(=O)c1ccccc1OC1CCOCC1)C3 [Example 35, (6-chloro-5,7-dimethyl-1H,3H-2,4,7a,8-tetraaza-cyclopenta[a]inden-2-yl)-[2-(tetrahydro-pyran-4-yloxy)-phenyl]-methanone]
24 | 6.00 to 6.70 | CSc1ccccc1C(=O)N1Cc2nn3c(C)c(C)c(C)nc3c2C1 [Example 25, (2-methylsulfanyl-phenyl)-(5,6,7-trimethyl-1H,3H-2,4,7a,8-tetraaza-cyclopenta[a]inden-2-yl)-methanone]
25 | 5.70 to 6.00 | Cc1cnc2c3c(nn2c1C)CN(C(=O)c1ccccc1OCCN(C)C)C3 [Example 38, [2-(2-dimethylamino-ethoxy)-phenyl]-(6,7-dimethyl-1H,3H-2,4,7a,8-tetraaza-cyclopenta[a]inden-2-yl)-methanone]
26 | 6.00 to 6.70 | Cc1nc2c3c(nn2c(C)c1C)CN(C(=O)c1ccccc1OCCN1CCCCC1)C3 [Example 20, [2-(2-piperidin-1-yl-ethoxy)-phenyl]-(5,6,7-trimethyl-1H,3H-2,4,7a,8-tetraaza-cyclopenta[a]inden-2-yl)-methanone]
27 | 6.00 to 6.70 | Cc1nc2c3c(nn2c(C)c1C)CN(C(=O)c1ccccc1OC(F)(F)F)C3 [Example 17, (2-trifluoromethoxy-phenyl)-(5,6,7-trimethyl-1H,3H-2,4,7a,8-tetraaza-cyclopenta[a]inden-2-yl)-methanone]
28 | 6.00 to 6.70 | Cc1nc2c3c(nn2c(C)c1Cl)CN(C(=O)c1ccc(F)cc1OCCn1cccn1)C3 [Example 18, (6-chloro-5,7-dimethyl-1H,3H-2,4,7a,8-tetraaza-cyclopenta[a]inden-2-yl)-[4-fluoro-2-(2-pyrazol-1-yl-ethoxy)-phenyl]-methanone]
29 | 5.70 to 6.00 | CCOc1ccc(Cl)cc1C(=O)N1Cc2nn3c(C)c(C)c(C)nc3c2C1 [Example 34, (5-chloro-2-ethoxy-phenyl)-(5,6,7-trimethyl-1H,3H-2,4,7a,8-tetraaza-cyclopenta[a]inden-2-yl)-methanone]
30 | 6.00 to 6.70 | Cc1nc2c3c(nn2c(C)c1C)CN(C(=O)c1ccccc1OC1CCN(C)CC1)C3 [Example 4, [2-(1-methyl-piperidin-4-yloxy)-phenyl]-(5,6,7-trimethyl-1H,3H-2,4,7a,8-tetraaza-cyclopenta[a]inden-2-yl)-methanone]
31 | 6.00 to 6.70 | Cc1nc2c3c(nn2c(C)c1C)CN(C(=O)c1ccccc1OCCn1cccn1)C3 [Example 24, [2-(2-pyrazol-1-yl-ethoxy)-phenyl]-(5,6,7-trimethyl-1H,3H-2,4,7a,8-tetraaza-cyclopenta[a]inden-2-yl)-methanone]
32 | 5.70 to 6.00 | Cc1cnc2c3c(nn2c1C)CN(C(=O)c1ccccc1N1CCCN(C)CC1)C3 [Example 41, (6,7-dimethyl-1H,3H-2,4,7a,8-tetraaza-cyclopenta[a]inden-2-yl)-[2-(4-methyl-[1,4]diazepan-1-yl)-phenyl]-methanone]

— US9403835B2, “Tetraaza-cyclopenta[a]indenyl and their use as positive allosteric modulators” (Merck Patent GmbH, priority 2011, dated 2016)
